Assay: Chemical stability assessment in formulation (UPLC-UV-MS purity loss at 37° C.)
Format: physicochemical
Details: 8 mM phosphate buffer pH 7.4, 1 mg/mL, 2 weeks
Procedure: The assay was performed to investigate the extend of chemical degradation in vitro over time upon incubation at 37° C. for a period of 2 weeks.
Peptide solutions were prepared by dissolving freeze-dried powder in 8 mM phosphate buffer pH 7.4 to a target of 1 mg/mL. The pH of peptide solutions was adjusted to 7.4 with 0.02 M HCl or 0.02 M NaOH. Samples were filled in Agilent HPLC vials with fixed insert. Vials were capped to prevent evaporation. The HPLC vials were incubated at 37° C. and samples were withdrawn at different time points over a period of 2 weeks, flash frozen at −80° C., and stored at −20° C. until analysis.
A flow-rate of 100 μL/min was delivered with a Binary solvent manager pump having 0.1% formic acid in water as solvent A and 0.1% formic acid in acetonitrile as solvent B. Gradient elution was carried out using 20% B from 0 to 2 min followed by 20 to 50% B from 2 to 20 min in a total run time of 30 min.

Row | Compound | Purity loss per week at 37° C. [%]
1 | CC[C@H](C)[C@H](NC(=O)[C@H](CCC(=O)O)NC(=O)[C@H](CCC(=O)O)NC(=O)[C@H](CC(C)C)NC(=O)[C@H](CC(C)C)NC(=O)[C@H](CCCCNC(=O)COCCOCCNC(=O)COCCOCCNC(=O)CC[C@H](NC(=O)CCCCCCCCCCCCCCCCCCC(=O)O)C(=O)O)NC(=O)[C@H](CO)NC(=O)[C@H](Cc1ccc(O)cc1)NC(=O)[C@H](CC(=O)O)NC(=O)[C@H](CO)NC(=O)[C@@H](NC(=O)[C@H](Cc1ccccc1)NC(=O)[C@@H](NC(=O)CNC(=O)[C@H](CCC(=O)O)NC(=O)C(C)(C)NC(=O)[C@@H](N)Cc1ccc(O)cc1)[C@@H](C)O)[C@@H](C)O)C(=O)N[C@@H](C)C(=O)N[C@@H](C)C(=O)N[C@@H](CCCNC(=N)N)C(=O)N[C@@H](CCC(=O)O)C(=O)N[C@@H](Cc1ccccc1)C(=O)N[C@H](C(=O)N[C@@H](CCC(=O)O)C(=O)N[C@@H](Cc1c[nH]c2ccccc12)C(=O)N[C@@H](CC(C)C)C(=O)N[C@@H](CC(C)C)C(=O)N[C@@H](C)C(=O)NCC(=O)NCC(=O)N1CCC[C@H]1C(=O)N[C@@H](CO)C(=O)N[C@@H](CO)C(=O)NCC(=O)N[C@@H](C)C(=O)NCC(=O)N[C@@H](CCC(N)=O)C(=O)N[C@@H](C)C(=O)N1CCC[C@H]1C(=O)NCC(=O)N[C@@H](CCC(=O)O)C(=O)N[C@@H](C)C(=O)N1CCC[C@H]1C(=O)NCC(=O)N[C@@H](C)C(=O)N[C@@H](CO)C(=O)N[C@@H](CCC(=O)O)C(=O)N[C@@H](CC(C)C)C(=O)N[C@@H](CO)C(=O)N[C@H](C(=O)N[C@@H](C)C(=O)N[C@@H](C)C(=O)N[C@@H](CC(C)C)C(=O)NCC(=O)N[C@@H](CCCNC(=N)N)C(=O)N[C@@H](CC(C)C)C(=O)N[C@@H](CO)C(=O)N[C@@H](C)C(=O)N[C@@H](CCC(=O)O)C(=O)N[C@@H](CC(C)C)C(=O)N[C@@H](Cc1c[nH]cn1)C(=O)N[C@@H](CCC(N)=O)C(=O)N[C@@H](CC(C)C)C(=O)N[C@@H](C)C(=O)N[C@H](C(=O)N[C@@H](CC(C)C)C(=O)N1CCC[C@H]1C(=O)N[C@@H](CCCNC(=N)N)C(=O)N[C@H](C(=O)N[C@@H](CCC(=O)O)C(=O)N[C@H](C(=O)NCC(=O)N[C@@H](CO)C(=O)NCC(=O)N[C@@H](CO)C(=O)N1CCC[C@H]1C(N)=O)[C@@H](C)O)[C@@H](C)O)[C@@H](C)O)[C@@H](C)O)[C@@H](C)CC [Compound 171] | 1.0
2 | CC[C@H](C)[C@H](NC(=O)[C@H](CCC(=O)O)NC(=O)[C@H](CCC(=O)O)NC(=O)[C@H](CC(C)C)NC(=O)[C@H](CC(C)C)NC(=O)[C@H](CCCCNC(=O)COCCOCCNC(=O)COCCOCCNC(=O)CC[C@H](NC(=O)CCCCCCCCCCCCCCCCCCC(=O)O)C(=O)O)NC(=O)[C@H](CO)NC(=O)[C@H](Cc1ccc(O)cc1)NC(=O)[C@H](CC(=O)O)NC(=O)[C@H](CO)NC(=O)[C@@H](NC(=O)[C@H](Cc1ccccc1)NC(=O)[C@@H](NC(=O)CNC(=O)[C@H](CCC(=O)O)NC(=O)C(C)(C)NC(=O)[C@@H](N)Cc1ccc(O)cc1)[C@@H](C)O)[C@@H](C)O)C(=O)N[C@@H](C)C(=O)N[C@@H](C)C(=O)N[C@@H](CCCNC(=N)N)C(=O)N[C@@H](CCC(=O)O)C(=O)N[C@@H](Cc1ccccc1)C(=O)N[C@H](C(=O)N[C@@H](CCC(=O)O)C(=O)N[C@@H](Cc1c[nH]c2ccccc12)C(=O)N[C@@H](CC(C)C)C(=O)N[C@@H](CC(C)C)C(=O)N[C@@H](C)C(=O)NCC(=O)NCC(=O)N1CCC[C@H]1C(=O)N[C@@H](CO)C(=O)N[C@@H](CO)C(=O)NCC(=O)N[C@@H](C)C(=O)NCC(=O)N[C@@H](CCC(N)=O)C(=O)N[C@@H](C)C(=O)N1CCC[C@H]1C(=O)NCC(=O)N[C@@H](CCC(=O)O)C(=O)N[C@@H](C)C(=O)N1CCC[C@H]1C(=O)NCC(=O)N[C@@H](C)C(=O)N[C@@H](CO)C(=O)N[C@@H](CCC(=O)O)C(=O)N[C@@H](CC(C)C)C(=O)N[C@@H](CO)C(=O)N[C@H](C(=O)N[C@@H](C)C(=O)N[C@@H](C)C(=O)N[C@@H](CC(C)C)C(=O)NCC(=O)N[C@@H](CCCNC(=N)N)C(=O)N[C@@H](CC(C)C)C(=O)N[C@@H](CO)C(=O)N[C@@H](C)C(=O)N[C@@H](CCC(=O)O)C(=O)N[C@@H](CC(C)C)C(=O)N[C@@H](Cc1c[nH]cn1)C(=O)N[C@@H](CCC(N)=O)C(=O)N[C@@H](CC(C)C)C(=O)N[C@@H](C)C(=O)N[C@H](C(=O)N[C@@H](CCC(=O)O)C(=O)N1CCC[C@H]1C(=O)N[C@@H](CCCNC(=N)N)C(=O)N[C@H](C(=O)N[C@@H](CCC(=O)O)C(=O)N[C@H](C(=O)NCC(=O)N[C@@H](CO)C(=O)NCC(=O)N[C@@H](CO)C(=O)N1CCC[C@H]1C(N)=O)[C@@H](C)O)[C@@H](C)O)[C@@H](C)O)[C@@H](C)O)[C@@H](C)CC [Compound 172] | 0.9
3 | CC[C@H](C)[C@H](NC(=O)[C@H](CCC(=O)O)NC(=O)[C@H](CCC(=O)O)NC(=O)[C@H](CC(C)C)NC(=O)[C@H](CC(C)C)NC(=O)[C@@H](NC(=O)[C@H](CO)NC(=O)[C@H](Cc1ccc(O)cc1)NC(=O)[C@H](CC(=O)O)NC(=O)[C@H](CO)NC(=O)[C@@H](NC(=O)[C@H](Cc1ccccc1)NC(=O)[C@@H](NC(=O)CNC(=O)[C@H](CCC(=O)O)NC(=O)C(C)(C)NC(=O)[C@@H](N)Cc1ccc(O)cc1)[C@@H](C)O)[C@@H](C)O)[C@@H](C)CC)C(=O)N[C@@H](C)C(=O)N[C@@H](C)C(=O)N[C@@H](CCCNC(=N)N)C(=O)N[C@@H](CCC(=O)O)C(=O)N[C@@H](Cc1ccccc1)C(=O)N[C@H](C(=O)N[C@@H](CCC(=O)O)C(=O)N[C@@H](Cc1c[nH]c2ccccc12)C(=O)N[C@@H](CC(C)C)C(=O)N[C@@H](CC(C)C)C(=O)N[C@@H](C)C(=O)NCC(=O)NCC(=O)N1CCC[C@H]1C(=O)N[C@@H](CO)C(=O)N[C@@H](CO)C(=O)NCC(=O)N[C@@H](C)C(=O)NCC(=O)N[C@@H](C)C(=O)N[C@@H](CO)C(=O)N[C@@H](CCC(N)=O)C(=O)N[C@@H](CC(C)C)C(=O)N[C@@H](CO)C(=O)N[C@H](C(=O)N[C@@H](C)C(=O)N[C@@H](CCC(N)=O)C(=O)N[C@H](C(=O)N[C@@H](CCC(N)=O)C(=O)N[C@@H](CCCNC(=N)N)C(=O)N[C@@H](CC(C)C)C(=O)N[C@@H](CO)C(=O)N[C@@H](C)C(=O)N[C@@H](CCC(=O)O)C(=O)N[C@@H](CC(C)C)C(=O)N[C@@H](Cc1c[nH]cn1)C(=O)N[C@@H](CCCCNC(=O)COCCOCCNC(=O)COCCOCCNC(=O)CC[C@H](NC(=O)CCCCCCCCCCCCCCCCCCC(=O)O)C(=O)O)C(=O)N[C@@H](CC(C)C)C(=O)N[C@@H](C)C(=O)N[C@H](C(=O)N[C@@H](CCC(=O)O)C(=O)N1CCC[C@H]1C(=O)N[C@@H](CCCNC(=N)N)C(=O)N[C@H](C(=O)N[C@@H](CCC(=O)O)C(=O)N[C@H](C(=O)NCC(=O)N[C@@H](CO)C(=O)NCC(=O)N[C@@H](CO)C(=O)N1CCC[C@H]1C(N)=O)[C@@H](C)O)[C@@H](C)O)[C@@H](C)O)[C@@H](C)O)[C@@H](C)O)[C@@H](C)CC [Compound 180] | 0.7

Source: patent publication US20260174875A1 (Novo Nordisk A/S, priority 2023, published 2026)
